In general, Cmax refers to the peak of the concentration-time curve.

“And” between values parts separate entries of the source, which are not always exact repeats. Identical values can stand only once.

A short description of one data set: in vivo. Particulars: NMRI, mouse. As to the method:
2.4 Protein plasma binding
This was determined as previously described.6
2.5 PK and maximum tolerated dose - mouse
PK studies in female NMRI mice (Figure S1): Test compounds 1, 2 and 10 were dosed SC at 10 mg free base/kg (dose volume 10 mL/kg; dose vehicle: 5% (v/v) DMSO, 40% polyethylene glycol 400 (PEG400) and 55% deionized water) to female NMRI mice (n = 3). Blood samples (10 μL) were taken from each mouse at 0.08, 0.25, 0.5, 1, 2, 4, 6, 8 h post dose (24 h post dose for compounds 2 and 10 only) and mixed with two volumes of deionized water (20 μL). Alternatively, compound 2 was delivered for 48 h via SC implanted ALZET osmotic pumps (10, 25 and 50 mg free base/mL, vehicle: 50% DMSO and 50% deionized water) to the female NMRI mouse (n = 3). Blood samples (10 μL) from each mouse were taken at 1, 3, 6, 24, 30 and 48 h post-dose and mixed with two volumes of deionized water (20 μL). […]
Response to treatment was determined by monitoring parasitaemia twice a week until day 21. […]
In each of the cattle efficacy studies (3.3, 3.4 and 3.5), efficacy was assessed primarily on absence of recrudescence of parasitaemia for 100 days after treatment administration together with improvements in Packed Cell Volume, body weight and clinical signs of infected compared with uninfected animals. […]

In another data set the test system is T. congolense. Nature of the data set: Cattle efficacy for compound 2, intramuscular (CIRDES), T. congolense. Type of data set: in vivo, Trypanosoma congolense. As to the method: Compound 2 was progressed into IM efficacy studies dosing at 10 mg/kg either once or twice, 15 h apart, in cattle infected with T. congolense or T. vivax. […]
3.5 Cattle efficacy for compound 2, intramuscular (CIRDES)
Felani-zebu cattle were housed in a fly-proof facility, acclimatised for 15 d prior to the study, cattle were treated with an anthelmintic, an ectoparasiticide and an antibiotic. Donor animals were infected with stabilates (frozen stocks) of either T. congolense KOT256 (resistant to 7 mg/kg diminazene in cattle) or T. vivax Gando Bongaly (resistant to diminazene 7 mg/kg and to isometamidium 1 mg/kg […]
in cattle). Blood from the donor animals, diluted with phosphate buffered glucose was used to infect recipient animals IV via the jugular vein. Infection was with approximately 100,000 fresh viable parasites. The compounds were given IM. Each injection was up to 10 mL and given in neck in the following order: left anterior third, right anterior third, left posterior third and right posterior third.
Animals over 240 kg required a fifth injection site for the IVP, and this was given in the left or right hind leg. Cattle were randomised to treatments. Parasitaemia was monitored 3 times per calendar week, though collection of blood and assessment of clinical symptoms. Blood samples were also […]
treatment). […]

Data set [1] can be described thus: Estimated EC99 used for PK/PD (parasite not stated). Particulars: free blood level threshold. An excerpt: Given promising in vivo efficacy data in mice (Table 1), compound 1 was progressed into cattle pharmacokinetic studies, dosing both IV and IM (Table 2, Figure S2, and Table S4). […] This low bioavailability was likely a consequence of poor compound release from the injection site following IM administration in cattle due to the low solubility of compound 1, probably leading to compound accumulation and precipitation at the injection site.

The compound `CC(C)CS(=O)(=O)N[C@H]1CC[C@H](Nc2nc(N)c(C(=O)c3c(F)cc(CN(C)C)cc3F)s2)CC1` [Compound 2, N-(trans)-[4-[[4-Amino-5-[4-(dimethylaminomethyl)-2,6-difluoro-benzoyl]thiazol-2-yl]amino]cyclohexyl]-2-methyl-propane-1-sulfonamide] had a Cmax in “in vivo” of 34 to 65 ng/mL. The Cattle cured result with T. congolense (10 mg/kg IM twice, 15 h apart, treatment groups T2 and T4 together) is “three out of the eight”. Moreover, the efficacy in the data set with T. congolense (T1, 10 mg/kg IM once, cured/animals, 100 days) is reported as 0/6; in the data set with T. congolense (T2, 10 mg/kg IM twice, 15 h apart, cured/animals), 1/4; in the data set on T. congolense (T4, saline twice, followed by compound 2 rescue dose twice IM 5 days later), 2/4. The “Efficacy, individual animals” value is “no” in the data set on T. congolense (T1 single dose IM, animals 1903, 1910, 1913, 1924, 1935, 1936); “no (3×) and yes” with T. congolense (T2 dosed twice IM, animals 1905, 1906, 1909, 1917); “no (2×) and yes (2×)” in the data set on T. congolense (T4 after 2 (two rescue doses IM), animals 1914, 1921, 1923, 1927).
Consider `CC(C)CS(=O)(=O)N[C@H]1CC[C@H](Nc2nc(N)c(C(=O)c3c(F)cccc3F)s2)CC1` [Compound 1, N-((trans)-4-((4-Amino-5-(2,6-difluorobenzoyl)thiazol-2-yl)amino)cyclohexyl)-2-methylpropane-1-sulfonamide], for which the “estimated EC99” value in data set [1] is 1.6 ng/mL.

The values are drawn from article PMC9014415, “Repositioning of a Diaminothiazole Series Confirmed to Target the Cyclin-Dependent Kinase CRK12 for Use in the Treatment of African Animal Trypanosomiasis” (Journal of Medicinal Chemistry, 2022).
